These results are taken from ChEMBL document CHEMBL2203021, “The synthesis and biological evaluation of novel Danshensu-cysteine analog conjugates as cardiovascular-protective agents” (2012).

Calls of active or inactive are those of the source. No cut-off for these calls is given here.

Assay [1] has as its system HUVEC. Nature of the assay: Inhibition of H2O2-induced cytotoxicity in HUVEC cells assessed as cell viability at 5 to 100 umol/L incubated 4 hrs prior to H2O2 challenge measured after 12 hrs by MTT assay. The format is functional, cell-based. The conditions noted are these: Homo sapiens. A general note: Tetrazolium dyes change colour on reduction, which living cells bring about.

The test system of assay [2] is HUVEC. As to the kind of experiment: Antioxidant activity against H2O2-induced lipid accumulation in HUVEC cells assessed as reduction in MDA level incubated 4 hrs prior to H2O2 challenge measured after 12 hrs. The assay is classed as functional, cell-based. The conditions noted are these: Homo sapiens.
Assay [3] deals with HUVEC. Nature of the assay: Inhibition of H2O2-induced cytotoxicity in HUVEC cells assessed as LDH release at 50 umol/L incubated 4 hrs prior to H2O2 challenge measured after 12 hrs by LDH assay. To be noted: Homo sapiens. The assay is classed as functional, cell-based. (In general: Release of lactate dehydrogenase indicates damage to the cell membrane.)
Assay [4] has as its system HUVEC. As to the kind of experiment: Inhibition of H2O2-induced cytotoxicity in HUVEC cells assessed as LDH release incubated 4 hrs prior to H2O2 challenge measured after 12 hrs by LDH assay. The format is functional, cell-based. To be noted: Homo sapiens.
For assay [5], the system named is HUVEC. Nature of the assay: Antioxidant activity against H2O2-induced lipid accumulation in HUVEC cells assessed as reduction in MDA level at 50 umol/L incubated 4 hrs prior to H2O2 challenge measured after 12 hrs. To be noted: Homo sapiens. The assay is classed as functional, cell-based.
Assay [6] relates to HUVEC. As to the kind of experiment: Antioxidant activity in HUVEC cells assessed as […] in H2O2-induced GSH activity at 50 umol/L incubated 4 hrs prior to H2O2 challenge measured after 12 hrs. The assay is classed as functional, cell-based. To be noted: Homo sapiens.
For assay [7], the system named is HUVEC. As to the kind of experiment: Antioxidant activity against in HUVEC cells assessed as […] in H2O2-induced GSH activity incubated 4 hrs prior to H2O2 challenge measured after 12 hrs. The assay is classed as functional, cell-based. The conditions noted are these: Homo sapiens.
In assay [8] the test system is HUVEC. As to the kind of experiment: Antiapoptotic activity in HUVEC cells assessed as inhibition of H2O2-induced mitochondrial membrane potential reduction by JC-1 staining. The format is functional, cell-based. To be noted: Homo sapiens.
The subject of assay [9] is HUVEC. Nature of the assay: Antiapoptotic activity in HUVEC cells assessed as reduction in H2O2-induced nuclei-shrunk by Hoechst staining. The assay is classed as functional, cell-based. The conditions noted are these: Homo sapiens.
For assay [10], the system named is HUVEC. Nature of the assay: Antiapoptotic activity in HUVEC cells assessed as reduction in H2O2-induced nuclear condensation by hoechst staining. The format is functional, cell-based. To be noted: Homo sapiens.
In assay [11] the test system is HUVEC. As to the kind of experiment: Antiapoptotic activity against H2O2-induced HUVEC cells assessed as reduction in late apoptotic cells after 4 hrs by annexin V-FITC/propidium iodide staining-based flow cytometry. The assay is classed as functional, cell-based. To be noted: Homo sapiens. (In flow cytometry, cells or beads pass a laser one at a time.)
The subject of assay [12] is HUVEC. As to the kind of experiment: Antiapoptotic activity against H2O2-induced HUVEC cells assessed as reduction in total apoptotic cells at 5 umol/L after 4 hrs by annexin V-FITC/propidium iodide staining-based flow cytometry. Also noted: scale not given: the % may be the effect or the level left. The format is functional, Homo sapiens.
Assay [13] has as its system HUVEC. As to the kind of experiment: Antiapoptotic activity against H2O2-induced HUVEC cells assessed as reduction in total apoptotic cells at 50 umol/L after 4 hrs by annexin V-FITC/propidium iodide staining-based flow cytometry. Also noted: scale not given: the % may be the effect or the level left. The format is functional, Homo sapiens.
Assay [14] deals with HUVEC. Nature of the assay: Antiapoptotic activity against H2O2-induced HUVEC cells assessed as reduction in total apoptotic cells at 100 umol/L after 4 hrs by annexin V-FITC/propidium iodide staining-based flow cytometry. The format is functional, Homo sapiens. Set-up: scale not given: the % may be the effect or the level left.
The subject of assay [15] is HUVEC. As to the kind of experiment: Antiapoptotic activity in HUVEC cells assessed as reduction in H2O2-induced Bax level by Western blotting relative to control. The format is functional, cell-based. To be noted: Homo sapiens.
The test system of assay [16] is HUVEC. As to the kind of experiment: Antiapoptotic activity in HUVEC cells assessed as reduction in H2O2-induced p53 level by Western blotting relative to control. The format is functional, cell-based. To be noted: Homo sapiens.
For assay [17], the system named is HUVEC. Nature of the assay: Antiapoptotic activity in HUVEC cells assessed as reduction in H2O2-induced PARP level by Western blotting relative to control. To be noted: Homo sapiens. The assay is classed as functional, cell-based.
In assay [18] the test system is HUVEC. As to the kind of experiment: Antiapoptotic activity against H2O2-induced HUVEC cells assessed as increase in Bcl-2 level by Western blotting relative to control. The assay is classed as functional, cell-based. The conditions noted are these: Homo sapiens.
In assay [19] the test system is HUVEC. As to the kind of experiment: Antiapoptotic activity in HUVEC cells assessed as […] in H2O2-induced pro-caspase-3 level by Western blotting. The format is functional, cell-based. The conditions noted are these: Homo sapiens.
Assay [20] concerns HUVEC. As to the kind of experiment: Antiapoptotic activity in HUVEC cells assessed as […] in H2O2-induced pro-caspase-9 level by Western blotting. The assay is classed as functional, cell-based. The conditions noted are these: Homo sapiens.
The test system of assay [21] is HUVEC. Nature of the assay: Inhibition of H2O2-induced cytotoxicity in HUVEC cells assessed as cell viability at 5 mmol/L incubated 4 hrs prior to H2O2 challenge measured after 12 hrs by MTT assay. To be noted: Homo sapiens. The format is functional, cell-based.
The test system of assay [22] is HUVEC. As to the kind of experiment: Inhibition of H2O2-induced cytotoxicity in HUVEC cells assessed as LDH release at 5 mmol/L incubated 4 hrs prior to H2O2 challenge measured after 12 hrs by LDH assay. The format is functional, cell-based. To be noted: Homo sapiens.
For assay [23], the system named is HUVEC. As to the kind of experiment: Antioxidant activity against H2O2-induced lipid accumulation in HUVEC cells assessed as reduction in MDA level at 5 mmol/L incubated 4 hrs prior to H2O2 challenge measured after 12 hrs. The format is functional, cell-based. To be noted: Homo sapiens.
The test system of assay [24] is HUVEC. As to the kind of experiment: Antioxidant activity in HUVEC cells assessed as […] in H2O2-induced GSH activity at 5 mmol/L incubated 4 hrs prior to H2O2 challenge measured after 12 hrs. The format is functional, cell-based. The conditions noted are these: Homo sapiens.

Consider `COC(=O)[C@H](CSCc1ccccc1)NC(=O)/C(=C/c1ccc(OC(C)=O)c(OC(C)=O)c1)OC(C)=O`, for which the inhibition entry in the assay with HUVEC [1] and in the assay on HUVEC [3] was “Active” in each case. Also, the Activity result in the assay on HUVEC [2], with HUVEC [7], in the assay with HUVEC [8], in the assay with HUVEC [9], in the assay with HUVEC [10] and with HUVEC [11] was “Dose-dependent effect” throughout. For the same compound, the Activity with HUVEC [12] is 20.1%; with HUVEC [13], 9%; with HUVEC [14], 5.4%; with HUVEC [15], “Dose-dependent effect”; with HUVEC [16], “Dose-dependent effect”; with HUVEC [17] it was “Dose-dependent effect”. For the same compound, the Activity entry in the assay on HUVEC [18], in the assay on HUVEC [19] and in the assay on HUVEC [20] was “Dose-dependent effect” in each case. Moreover, in the assay on HUVEC [4], the inhibition result was “Dose-dependent effect”. Besides, the result with HUVEC [5] and in the assay on HUVEC [6] was Active.

On to `COC(=O)[C@@H](N)CSC(=O)C(Cc1ccc2c(c1)OCO2)OC(C)=O` (stereo partly drawn), for which, in the assay on HUVEC [1], the inhibition result is “Active”.

For the compound `COC(=O)[C@H](CSCc1ccccc1)NC(=O)CCc1ccc2c(c1)OCO2`, in the assay with HUVEC [1], the inhibition result is “inactive”.

Take `COC(=O)[C@H](CSC(=O)C(Cc1ccc2c(c1)OCO2)OC(C)=O)NC(=O)OC(C)(C)C` (stereo partly drawn): the inhibition result in the assay on HUVEC [1] is “inactive”.

On to `COC(=O)[C@H](CSCc1ccccc1)NC(=O)/C(=C/c1ccc2c(c1)OCO2)OC(C)=O`, for which the inhibition entry in the assay with HUVEC [1] was “inactive”.

Regarding `COC(=O)[C@@H](N)CSC(=O)CCc1ccc(OC(C)=O)c(OC(C)=O)c1`, the result in the assay with HUVEC [1] was inactive.

As to `COC(=O)[C@@H](N)CSC(=O)/C(=C/c1ccc(OC(C)=O)c(OC(C)=O)c1)OC(C)=O`, the inhibition result with HUVEC [1] was “Active”.

As for `COC(=O)[C@@H](N)CSC(=O)/C(=C/c1ccc2c(c1)OCO2)OC(C)=O`, in the assay on HUVEC [1], the inhibition entry is “Active”.

As for `COC(=O)[C@H](CSCc1ccccc1)NC(=O)C(Cc1ccc2c(c1)OCO2)OC(C)=O` (stereo partly drawn), the inhibition entry in the assay with HUVEC [1] is “inactive”.

As to `COC(=O)[C@H](CSCc1ccccc1)NC(=O)CCc1ccc(OC(C)=O)c(OC(C)=O)c1`, the inhibition entry in the assay with HUVEC [1] and in the assay on HUVEC [3] was “Active” in each case. Further, the result in the assay with HUVEC [5] and in the assay on HUVEC [6] was Active.

As to `CC(=O)N[C@@H](CS)C(=O)O`, the inhibition result with HUVEC [21] and in the assay with HUVEC [22] was “Active” in each case. Also, the outcome with HUVEC [23] and in the assay with HUVEC [24] was Active.

For `COC(=O)[C@H](CSCc1ccccc1)NC(=O)C(Cc1ccc(OC(C)=O)c(OC(C)=O)c1)OC(C)=O` (stereo partly drawn), the inhibition result in the assay on HUVEC [1] and in the assay on HUVEC [3] was “Active” each time. The result with HUVEC [5] and with HUVEC [6] was Active.

Regarding `COC(=O)[C@@H](N)CSC(=O)CCc1ccc2c(c1)OCO2`, the result in the assay with HUVEC [1] was inactive.

For `COC(=O)[C@H](CSC(=O)C(Cc1ccc(OC(C)=O)c(OC(C)=O)c1)OC(C)=O)NC(=O)OC(C)(C)C` (stereo partly drawn), in the assay with HUVEC [1], the inhibition result was “inactive”.

On to `COC(=O)[C@H](CSC(=O)CCc1ccc2c(c1)OCO2)NC(=O)OC(C)(C)C`, for which the result in the assay with HUVEC [1] was inactive.

Consider `COC(=O)[C@H](CSC(=O)CCc1ccc(OC(C)=O)c(OC(C)=O)c1)NC(=O)OC(C)(C)C`, for which the result in the assay with HUVEC [1] was inactive.

Turning to `COC(=O)[C@@H](N)CSC(=O)C(Cc1ccc(OC(C)=O)c(OC(C)=O)c1)OC(C)=O` (stereo partly drawn), the inhibition result in the assay with HUVEC [1] is “inactive”.

As for `COC(=O)[C@H](CSC(=O)/C(=C/c1ccc(OC(C)=O)c(OC(C)=O)c1)OC(C)=O)NC(=O)OC(C)(C)C`, the inhibition entry in the assay on HUVEC [1] and in the assay with HUVEC [3] was “Active” each time. Moreover, the outcome in the assay on HUVEC [5] and with HUVEC [6] was Active.

`COC(=O)[C@H](CSC(=O)/C(=C/c1ccc2c(c1)OCO2)OC(C)=O)NC(=O)OC(C)(C)C`: the inhibition result in the assay with HUVEC [1] and with HUVEC [3] was “Active” in each case. Moreover, the outcome in the assay with HUVEC [5] and in the assay on HUVEC [6] was Active.
